Experiments:
[1] = Preclinical pulmonary administration of sumatriptan, irritancy to the airways; type: in vivo
[2] = intranasal route (Duquesnoy et al 1998); cited from earlier work
[3] = Solubility in ethanol-based HFA 134a pMDI formulations; type: physicochemical

solubility [3]	SMILES	respiratory changes ([1]; 1.9 mg/kg)	respiratory changes ([1]; 9 mg/kg)	coefficient of variation for Tmax [2]
–	CNS(=O)(=O)Cc1ccc2[nH]cc(CCN(C)C)c2c1 [sumatriptan]	not of degenerative nature	degeneration occurred	62.8%
low solubility	CNS(=O)(=O)Cc1ccc2[nH]cc(CCN(C)C)c2c1 [sumatriptan succinate]	–	–	–
